Measurements reported in PubChem BioAssay AID270 (DTP/NCI, 2004).
Where “and” joins values, the source holds several entries; their conditions need not be identical. Equal values may be shown once. Results filed as inconclusive are left out.

Tested on: BDF1 mice, s.c. Lewis lung carcinoma, T/C %
Assay: NCI In Vivo Anticancer Drug Screen. Data for tumor model Lewis Lung Carcinoma (subcutaneous) in B6D2F1 (BDF1) mice
Procedure, shortened: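 Readout: survival or tumor size, expressed as treated (T) over vehicle control (C). Transplantable tumor implanted in mice; compound given to the treated group.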

[1] = endpoint: median survival time, dose: 150.0 mg/kg/injection, schedule: Q01DX009 (ip), vehicle: Klucel (hydroxypropylcellulose) (HPC), higher = longer survival

CC/C(=C(\CC)c1ccc(OC)cc1)c1ccc(O)cc1
T/C (endpoint: mean tumor weight, dose: 15.0 mg/kg/injection, schedule: Q01DX011 (sc), vehicle: steriod suspending solution, higher = larger tumour): 54 % of control
T/C (endpoint: mean tumor weight, dose: 30.0 mg/kg/injection, schedule: Q01DX011 (sc), vehicle: steriod suspending solution, higher = larger tumour): 35 % of control
T/C (endpoint: mean tumor weight, dose: 60.0 mg/kg/injection, schedule: Q01DX011 (sc), vehicle: steriod suspending solution, higher = larger tumour): 23 % of control
T/C (endpoint: mean tumor weight, dose: 100.0 mg/kg/injection, schedule: Q01DX011 (sc), vehicle: steriod suspending solution, higher = larger tumour): 7 % of control
T/C (endpoint: mean tumor weight, dose: 120.0 mg/kg/injection, schedule: Q01DX011 (sc), vehicle: steriod suspending solution, higher = larger tumour): 31 % of control and 36 % of control
T/C (endpoint: mean tumor weight, dose: 200.0 mg/kg/injection, schedule: Q01DX011 (sc), vehicle: steriod suspending solution, higher = larger tumour): 22 % of control
T/C (endpoint: mean tumor weight, dose: 240.0 mg/kg/injection, schedule: Q01DX011 (sc), vehicle: steriod suspending solution, higher = larger tumour): 31 % of control
T/C (endpoint: mean tumor weight, dose: 300.0 mg/kg/injection, schedule: Q01DX011 (sc), vehicle: steriod suspending solution, higher = larger tumour): 22 % of control

CCCCCC[C@@H](O)C/C=C\CCCCCCCC(=O)O
T/C (endpoint: mean tumor weight, dose: 25.0 mg/kg/injection, schedule: Q01DX011 (ip), vehicle: saline, higher = larger tumour): 104 % of control
T/C (endpoint: mean tumor weight, dose: 50.0 mg/kg/injection, schedule: Q01DX011 (ip), vehicle: saline, higher = larger tumour): 77 % of control
T/C (endpoint: mean tumor weight, dose: 100.0 mg/kg/injection, schedule: Q01DX011 (ip), vehicle: saline, higher = larger tumour): 59 % of control

Nc1nc(SCc2ccccc2Cl)c2[nH]cnc2n1
T/C (endpoint: mean tumor weight, dose: 3.8 mg/kg/injection, schedule: Q01DX011 (ip), vehicle: other, higher = larger tumour): 82 % of control
T/C (endpoint: mean tumor weight, dose: 7.5 mg/kg/injection, schedule: Q01DX011 (ip), vehicle: other, higher = larger tumour): 38 % of control
T/C (endpoint: mean tumor weight, dose: 15.0 mg/kg/injection, schedule: Q01DX011 (ip), vehicle: other, higher = larger tumour): 99 % of control
T/C (endpoint: mean tumor weight, dose: 60.0 mg/kg/injection, schedule: Q01DX011 (ip), vehicle: other, higher = larger tumour): 29 % of control
T/C (endpoint: mean tumor weight, dose: 120.0 mg/kg/injection, schedule: Q01DX011 (ip), vehicle: other, higher = larger tumour): 11 % of control

Cc1ccccn1
T/C (endpoint: mean tumor weight, dose: 62.5 mg/kg/injection, schedule: Q01DX011 (ip), vehicle: carboxymethylcellulose (CMC), higher = larger tumour): 93 % of control
T/C (endpoint: mean tumor weight, dose: 125.0 mg/kg/injection, schedule: Q01DX011 (ip), vehicle: carboxymethylcellulose (CMC), higher = larger tumour): 112 % of control
T/C (endpoint: mean tumor weight, dose: 250.0 mg/kg/injection, schedule: Q01DX011 (ip), vehicle: carboxymethylcellulose (CMC), higher = larger tumour): 94 % of control

CCCCCOC(CN)C(Cl)(Cl)Cl (stereo not drawn)
T/C (endpoint: median survival time, dose: 12.5 mg/kg/injection, schedule: Q01DX009 (ip), vehicle: saline, higher = longer survival): 100 % of control
T/C (endpoint: median survival time, dose: 25.0 mg/kg/injection, schedule: Q01DX009 (ip), vehicle: saline, higher = longer survival): 92 % of control
T/C (endpoint: median survival time, dose: 100.0 mg/kg/injection, schedule: Q01DX009 (ip), vehicle: saline, higher = longer survival): 95 % of control

CCC[CH2][Sn]1([CH2]CCC)[O]C(=O)C[S]1
T/C (endpoint: mean tumor weight, dose: 4.0 mg/kg/injection, schedule: Q01DX011 (ip), vehicle: saline, higher = larger tumour): 88 % of control
T/C (endpoint: mean tumor weight, dose: 8.0 mg/kg/injection, schedule: Q01DX011 (ip), vehicle: saline, higher = larger tumour): 50 % of control
T/C (endpoint: mean tumor weight, dose: 16.0 mg/kg/injection, schedule: Q01DX011 (ip), vehicle: saline, higher = larger tumour): 100 % of control

CC1(C)N=C(N)N=C(N)N1c1cccc(CC(=O)Nc2ccc(S(=O)(=O)F)cc2)c1
T/C (endpoint: median survival time, dose: 25.0 mg/kg/injection, schedule: Q01DX009 (ip), vehicle: Klucel (hydroxypropylcellulose) (HPC), higher = longer survival): 100 % of control
T/C (endpoint: median survival time, dose: 50.0 mg/kg/injection, schedule: Q01DX009 (ip), vehicle: Klucel (hydroxypropylcellulose) (HPC), higher = longer survival): 95 % of control
T/C (endpoint: median survival time, dose: 100.0 mg/kg/injection, schedule: Q01DX009 (ip), vehicle: Klucel (hydroxypropylcellulose) (HPC), higher = longer survival): 98 % of control
T/C [1]: 94 % of control

NC1(C(=O)O)CCCC1
T/C (endpoint: mean tumor weight, dose: 30.0 mg/kg/injection, schedule: Q01DX011 (ip), vehicle: saline, higher = larger tumour): 38 % of control and 61 % of control
T/C (endpoint: mean tumor weight, dose: 60.0 mg/kg/injection, schedule: Q01DX011 (ip), vehicle: saline, higher = larger tumour): 25 % of control and 30 % of control
T/C (endpoint: mean tumor weight, dose: 120.0 mg/kg/injection, schedule: Q01DX011 (ip), vehicle: saline, higher = larger tumour): 8 % of control
T/C (endpoint: median survival time, dose: 1.6 mg/kg/injection, schedule: Q01DX009 (ip), vehicle: carboxymethylcellulose (CMC), higher = longer survival): 96 % of control
T/C (endpoint: median survival time, dose: 6.25 mg/kg/injection, schedule: Q01DX009 (ip), vehicle: carboxymethylcellulose (CMC), higher = longer survival): 123 % of control

[N-]=[N+]=CC(=O)CCC(N)C(=O)O (stereo not drawn)
T/C (endpoint: median survival time, dose: 0.1 mg/kg/injection, schedule: Q01DX009 (ip), vehicle: saline, higher = longer survival): 121 % of control
T/C (endpoint: median survival time, dose: 0.2 mg/kg/injection, schedule: Q01DX009 (ip), vehicle: saline, higher = longer survival): 110 % of control
T/C (endpoint: median survival time, dose: 94.0 mg/kg/injection, schedule: Q01DX001 (ip), vehicle: saline, higher = longer survival): 120 % of control
T/C (endpoint: median survival time, dose: 210.0 mg/kg/injection, schedule: Q01DX001 (ip), vehicle: saline, higher = longer survival): 107 % of control

Cc1ncc([N+](=O)[O-])n1CCO
T/C (endpoint: median survival time, dose: 37.5 mg/kg/injection, schedule: Q01DX009 (ip), vehicle: Klucel (hydroxypropylcellulose) (HPC), higher = longer survival): 98 % of control
T/C (endpoint: median survival time, dose: 37.5 mg/kg/injection, schedule: Q04DX003 (ip), vehicle: Klucel (hydroxypropylcellulose) (HPC), higher = longer survival): 92 % of control
T/C (endpoint: median survival time, dose: 75.0 mg/kg/injection, schedule: Q01DX009 (ip), vehicle: Klucel (hydroxypropylcellulose) (HPC), higher = longer survival): 106 % of control
T/C (endpoint: median survival time, dose: 75.0 mg/kg/injection, schedule: Q04DX003 (ip), vehicle: Klucel (hydroxypropylcellulose) (HPC), higher = longer survival): 97 % of control
T/C [1]: 96 % of control
T/C (endpoint: median survival time, dose: 150.0 mg/kg/injection, schedule: Q04DX003 (ip), vehicle: Klucel (hydroxypropylcellulose) (HPC), higher = longer survival): 96 % of control
T/C (endpoint: median survival time, dose: 300.0 mg/kg/injection, schedule: Q01DX009 (ip), vehicle: Klucel (hydroxypropylcellulose) (HPC), higher = longer survival): 97 % of control
T/C (endpoint: median survival time, dose: 300.0 mg/kg/injection, schedule: Q04DX003 (ip), vehicle: Klucel (hydroxypropylcellulose) (HPC), higher = longer survival): 100 % of control
T/C (endpoint: median survival time, dose: 600.0 mg/kg/injection, schedule: Q01DX009 (ip), vehicle: Klucel (hydroxypropylcellulose) (HPC), higher = longer survival): 105 % of control
T/C (endpoint: median survival time, dose: 600.0 mg/kg/injection, schedule: Q04DX003 (ip), vehicle: Klucel (hydroxypropylcellulose) (HPC), higher = longer survival): 91 % of control

CCC(=O)O[C@H]1CC[C@H]2[C@@H]3CCC4=CC(=O)CC[C@]4(C)[C@H]3CC[C@]12C
T/C (endpoint: mean tumor weight, dose: 125.0 mg/kg/injection, schedule: Q01DX011 (ip), vehicle: steriod suspending solution, higher = larger tumour): 86 % of control
T/C (endpoint: mean tumor weight, dose: 250.0 mg/kg/injection, schedule: Q01DX011 (ip), vehicle: steriod suspending solution, higher = larger tumour): 70 % of control
T/C (endpoint: mean tumor weight, dose: 500.0 mg/kg/injection, schedule: Q01DX011 (ip), vehicle: steriod suspending solution, higher = larger tumour): 84 % of control
T/C (endpoint: median survival time, dose: 40.0 mg/kg/injection, schedule: Q02DX009 (ip), vehicle: Klucel (hydroxypropylcellulose) (HPC), higher = longer survival): 90 % of control
T/C (endpoint: median survival time, dose: 80.0 mg/kg/injection, schedule: Q02DX009 (ip), vehicle: Klucel (hydroxypropylcellulose) (HPC), higher = longer survival): 97 % of control
T/C (endpoint: median survival time, dose: 160.0 mg/kg/injection, schedule: Q02DX009 (ip), vehicle: Klucel (hydroxypropylcellulose) (HPC), higher = longer survival): 103 % of control
T/C (endpoint: median survival time, dose: 320.0 mg/kg/injection, schedule: Q02DX009 (ip), vehicle: Klucel (hydroxypropylcellulose) (HPC), higher = longer survival): 90 % of control

O=P(N1CC1)(N1CC1)N1CC1
T/C (endpoint: mean tumor weight, dose: 0.2 mg/kg/injection, schedule: Q01DX011 (ip), vehicle: other, higher = larger tumour): 90 % of control
T/C (endpoint: mean tumor weight, dose: 0.4 mg/kg/injection, schedule: Q01DX011 (ip), vehicle: other, higher = larger tumour): 62 % of control
T/C (endpoint: mean tumor weight, dose: 0.8 mg/kg/injection, schedule: Q01DX011 (ip), vehicle: other, higher = larger tumour): 58 % of control and 69 % of control
T/C (endpoint: mean tumor weight, dose: 1.3 mg/kg/injection, schedule: Q01DX011 (ip), vehicle: other, higher = larger tumour): 37 % of control and 45 % of control and 62 % of control
T/C (endpoint: mean tumor weight, dose: 2.0 mg/kg/injection, schedule: Q01DX011 (ip), vehicle: other, higher = larger tumour): 70 % of control

CN(C)CC/C=C1\c2ccccc2Sc2ccc(Cl)cc21
T/C (endpoint: median survival time, dose: 1.87 mg/kg/injection, schedule: Q01DX001 (ip), vehicle: Klucel (hydroxypropylcellulose) (HPC), higher = longer survival): 102 % of control
T/C (endpoint: median survival time, dose: 3.75 mg/kg/injection, schedule: Q01DX001 (ip), vehicle: Klucel (hydroxypropylcellulose) (HPC), higher = longer survival): 109 % of control
T/C (endpoint: median survival time, dose: 7.5 mg/kg/injection, schedule: Q01DX001 (ip), vehicle: Klucel (hydroxypropylcellulose) (HPC), higher = longer survival): 88 % of control
T/C (endpoint: median survival time, dose: 15.0 mg/kg/injection, schedule: Q01DX001 (ip), vehicle: Klucel (hydroxypropylcellulose) (HPC), higher = longer survival): 102 % of control

O=C1CCCC2C3CC(CN12)C1CCCCN1C3 (stereo not drawn)
T/C (endpoint: mean tumor weight, dose: 22.0 mg/kg/injection, schedule: Q01DX011 (ip), vehicle: carboxymethylcellulose (CMC), higher = larger tumour): 113 % of control
T/C (endpoint: mean tumor weight, dose: 33.0 mg/kg/injection, schedule: Q01DX011 (ip), vehicle: carboxymethylcellulose (CMC), higher = larger tumour): 59 % of control
T/C (endpoint: mean tumor weight, dose: 50.0 mg/kg/injection, schedule: Q01DX011 (ip), vehicle: carboxymethylcellulose (CMC), higher = larger tumour): 78 % of control
T/C (endpoint: mean tumor weight, dose: 75.0 mg/kg/injection, schedule: Q01DX011 (ip), vehicle: carboxymethylcellulose (CMC), higher = larger tumour): 89 % of control

O=NN(CCCl)C(=O)NC(CCC(=O)O)C(=O)O (stereo not drawn)
T/C (endpoint: median survival time, dose: 81.0 mg/kg/injection, schedule: Q01DX001 (ip), vehicle: saline with Tween-80, higher = longer survival): 99 % of control
T/C (endpoint: median survival time, dose: 122.0 mg/kg/injection, schedule: Q01DX001 (ip), vehicle: saline with Tween-80, higher = longer survival): 95 % of control
T/C (endpoint: median survival time, dose: 183.0 mg/kg/injection, schedule: Q01DX001 (ip), vehicle: saline with Tween-80, higher = longer survival): 157 % of control
T/C (endpoint: median survival time, dose: 184.0 mg/kg/injection, schedule: Q01DX001 (ip), vehicle: saline with Tween-80, higher = longer survival): 117 % of control
T/C (endpoint: median survival time, dose: 275.0 mg/kg/injection, schedule: Q01DX001 (ip), vehicle: saline with Tween-80, higher = longer survival): 107 % of control
